Measured values published in US20190352341A1, “MODIFIED PEPTIDES AND THEIR USE FOR TREATING SYSTEMIC LUPUS ERYTHEMATOSUS” (IMMUPHARMA FRANCE SA, priority 2018, published 2019).
Where “and” joins values, the source holds several entries; their conditions need not be identical. Identical values can stand only once. Numbered stars: 1 amine (or outer) side, 2 acyl side, 3 side chain; on linkers, the order of the positions; unused ones are H or OH. Square brackets hold non-standard residues; d marks the D form. Peptide text beside a SMILES is read from it. ξ: configuration not given here. X1 = CSCC[C@H](NC(=N)[C@H](Cc1c[nH]cn1)N[*:1])C(=O)[*:2]; pS = N[C@@H](COP(=O)(O)O)C(=O)O; Ile(3ξ) = CCC(C)[C@H](N)C(=O)O

Tests used:
Balb/c mice = test: 31-day HDM-induced asthma model, airway response to methacholine (Flexivent); assay type: in vivo, mouse; settings: for Crs / Ers / Rrs: individual mice
Description: The aim of this study was to evaluate the effect of the P140 phosphopeptide administered systemically (intravenously) in a 31-day model of HDM-induced asthma in mice. The P140 phosphopeptide was solubilized in sterile water (Braun) and 10× concentrate sterile saline was added to adjust osmolarity to 300 mosm. Osmolarity was controlled with a micro osmometer (Löser, type 15) and validated (303 mosm). The P140 phosphopeptide was used in vivo at the dose of 4 mg/kg by intravenous (i.v.) routes. Control animals received equivalent volumes (2 ml/kg) of saline (Table 8).
Nine-week-old male Balb/c mice were sensitized by intranasal (i.n.) administration of HDM extract (Stallergenes): 1 μg in 25 μl saline on days 0, 1, 2, 3, 4, and 10 μg on days 14 and 21. Mice were challenged by i.n. administration of HDM (1 μg) and/or saline on days 28, 29 and 30. Mice were treated by i.v. injection (2 ml/kg) of P140 or solvent on day 25 (see FIG. 14).
Airway response to Methacholine (Flexivent®). On day 31, airway responses to PBS then methacholine were assessed using a forced oscillation technique (Flexivent®, SCIREQ, Montreal, Canada) as described (Daubeuf et al, Bioprotocol, 645, 2013). Mice were anesthetized with an intraperitoneal injection of xylasine (Rompun®; 1 mg/kg), followed fifteen minutes later by an intraperitoneal injection of pentobarbital sodium (3.64 mg/Kg). The trachea was exposed and an 18-gauge metal needle was inserted into the trachea. Airways were connected to a computer-controlled small animal ventilator, and quasi-sinusoidally ventilated with a tidal volume of 10 ml/Kg at a frequency of 150 breaths/min and a positive end-expiratory pressure of 2 cm H2O to achieve a mean respiratory volume close to that of spontaneous breathing. After baseline measurement, each mouse was challenged for 10 sec with an aerosol of PBS generated with an in-line nebulizer and administered directly through the ventilator. Then, aerosolized methacholine (MCh) at 50 mg/ml was administered for 10 sec. The effect of methacholine was calculated as the peak response, i.e. the mean of the three maximal values integrated for calculation of airway resistance (R, cm H20·s·mL^−1), elastance (E, cm H20·mL^−1) and compliance (C, mL·cm H20^−1).
All mice were sensitized to HDM on days 0, 1, 2, 3, 4, 14, 21, and challenged either with saline ([…]) or HDM (challenge with allergen). Results are presented as means±SEM. Differences between groups were tested for statistical significance using Student's t test for inflammatory cells and a two-way ANOVA followed by Bonferroni post-test for airway responses.

Lewis rats = test: Chronic-EAN rat model for CIDP; assay type: in vivo; settings: P140 100 μg/rat i.p., vs untreated rats
Description: Male Lewis rats, 7-8 weeks old, weighing 250-270 g, purchased from Charles River (Domaine des Oncins, L'Arbresle, France) were used. To induce chronic-EAN (CIDP), rats were immunized with S-palm-P0(180-199) peptide by subcutaneous injection at the base of the tail of 200 μL of an inoculum containing 200 μg of peptide (Ac(palm)KRGRQTPVLYAMLDHSRS), and 0.5 mg of Mycobacterium tuberculosis (strain H37 RA, Difco, Detroit, Mich., USA) emulsified in 100 μL of saline solution and 100 μL of Freund's incomplete adjuvant (SIGMA-Aldrich, St-Quentin Fallavier, France).
Body weight and clinical scores are assessed daily until 60 days post-immunization (dpi). Severity of paresis is graded as follows: 0=no illness; 1=flaccid tail; 2=moderate paraparesis; 3=severe paraparesis; 4=tetraparesis; 5=death.
100 μg/rat P140 peptide in 500 μL water/saline (1:10) were intraperitoneally injected at 5, 7, 9, 13 dpi and 3 times per week from 22 dpi until the end of the study.

C57BL/6 mice = test: K/B×N serum transfer mouse model of rheumatoid arthritis; assay type: in vivo
Description: The TCR transgenic mice expressing the KRN and the MHC class II A^g7 molecule (K/B×N mice) have developed a severe inflammatory arthritis. The administration of serum of these mice to healthy recipient mice causes inflammatory arthritis over a period of about 15 days with a peak ignition around day 7 post-injection.
Two mouse serum administrations from K/B×N were performed (day 0 and day 2). The injection of serum (100 μl/mouse) is performed by intra-peritoneal (ip) injection in mice C57BL/6 (or B6) for 8 weeks (n=10); untreated mouse (n=10).
The P140 peptide (100 μg/100 μl; iv retro-orbital) was administered as follows:
Curative treatment: Injection at day 1 and day 4, to guide the peak of inflammatory disease. Preventive treatment: Injection at day −7 and day −2. Bleeding S0 (at day 0) is followed by bloodletting conducted every six days to dispose of serum. The study ends when inflammation has returned to its basal level, to around day 20 (see FIG. 21).
During the peak of inflammation, every day the animals are evaluated, and swelling score of articulation is established. It is ranged from 0 to 4 and based on a joint observation of the animal. In practice, this score is given for each leg (4 values) and these values are added together to get a general score that ranges from 0 to 16 (FIG. 22).

[1] = HDM-challenged (HDM + P140), first of two unheaded values (presumably PBS)
[2] = HDM-challenged (HDM + P140), second of two unheaded values (presumably MCh 50 mg/mL)
[3] = chronic asthma (saline-challenged), methacholine 50 mg/ml, P140 i.v. 4 mg/kg day 25
[4] = saline-challenged (chronic asthma), first of two unheaded values (presumably PBS)
[5] = saline-challenged (chronic asthma), second of two unheaded values (presumably MCh 50 mg/mL)

CCC(C)[C@H](NC(=O)[C@H](Cc1ccccc1)NC(=O)[C@H](C)NC(=O)[C@H](Cc1ccc(O)cc1)NC(=O)CNC(=O)[C@H](CCCNC(=N)N)NC(=O)[C@@H]1CCCN1C(=O)[C@H](CCCCN)NC(=O)CNC(=O)[C@H](COP(=O)(O)O)NC(=O)[C@H](CCCNC(=N)N)NC(=O)[C@H](CCCCN)NC(=O)[C@H](CO)NC(=O)[C@H](Cc1ccc(O)cc1)NC(=O)[C@@H](NC(=O)[C@H](CCSC)NC(=N)[C@H](Cc1c[nH]cn1)NC(=O)[C@@H](NC(=O)[C@@H](N)CCCNC(=N)N)C(C)CC)C(C)C)C(=O)N[C@@H](CCC(=O)O)C(=O)N[C@@H](Cc1ccc(O)cc1)C(=O)O (stereo partly drawn) [Compound P140] (H-R[Ile(3ξ)][X1]VYSKR[pS]GKPRGYAF[Ile(3ξ)]EY-OH)
Crs (Balb/c mice; [1]): 0.0554 mL/cmH2O and 0.0514 mL/cmH2O and 0.0528 mL/cmH2O and 0.0566 mL/cmH2O and 0.0492 mL/cmH2O and 0.0458 mL/cmH2O and 0.0552 mL/cmH2O and 0.0589 mL/cmH2O
Ers (Balb/c mice; [1]): 18.0582 cmH2O/mL and 19.4433 cmH2O/mL and 18.9515 cmH2O/mL and 17.6781 cmH2O/mL and 20.3326 cmH2O/mL and 21.8367 cmH2O/mL and 18.1106 cmH2O/mL and 16.9723 cmH2O/mL
Rrs (Balb/c mice; [1]): 0.6405 cmH2O · s/mL and 0.6092 cmH2O · s/mL and 0.7972 cmH2O · s/mL and 0.5185 cmH2O · s/mL and 0.6804 cmH2O · s/mL and 0.6365 cmH2O · s/mL and 0.4744 cmH2O · s/mL and 0.5456 cmH2O · s/mL
Crs (Balb/c mice; [2]): 0.0146 mL/cmH2O and 0.0075 mL/cmH2O and 0.0062 mL/cmH2O and 0.0065 mL/cmH2O and 0.0101 mL/cmH2O and 0.0060 mL/cmH2O and 0.0138 mL/cmH2O and 0.0081 mL/cmH2O
Ers (Balb/c mice; [2]): 79.8018 cmH2O/mL and 148.4985 cmH2O/mL and 188.1151 cmH2O/mL and 219.9720 cmH2O/mL and 125.7688 cmH2O/mL and 173.4582 cmH2O/mL and 72.6033 cmH2O/mL and 131.8035 cmH2O/mL
Rrs (Balb/c mice; [2]): 5.6421 cmH2O · s/mL and 10.3886 cmH2O · s/mL and 11.9654 cmH2O · s/mL and 10.5419 cmH2O · s/mL and 8.8810 cmH2O · s/mL and 13.0087 cmH2O · s/mL and 7.0705 cmH2O · s/mL and 9.7688 cmH2O · s/mL
Airway resistance, elastance or compliance (Balb/c mice; allergen (HDM)-challenged mice, vs solvent group): no effect
Airway compliance, change vs solvent group (Balb/c mice; [3]): +115%
Elastance, change vs solvent group (Balb/c mice; [3]): −65%
Airway resistance, change vs solvent group (Balb/c mice; chronic asthma (saline-challenged), methacholine 50 mg/ml, P140 i.v. 4 mg/kg day 25, non-significant): −42%
Crs (Balb/c mice; [4]): 0.0545 mL/cmH2O and 0.0498 mL/cmH2O and 0.0569 mL/cmH2O and 0.0541 mL/cmH2O and 0.0650 mL/cmH2O
Ers (Balb/c mice; [4]): 18.3671 cmH2O/mL and 20.0811 cmH2O/mL and 17.5777 cmH2O/mL and 18.4893 cmH2O/mL and 15.3975 cmH2O/mL
Rrs (Balb/c mice; [4]): 0.5590 cmH2O · s/mL and 0.8945 cmH2O · s/mL and 0.5926 cmH2O · s/mL and 0.8074 cmH2O · s/mL and 0.4418 cmH2O · s/mL
Crs (Balb/c mice; [5]): 0.0304 mL/cmH2O and 0.0132 mL/cmH2O and 0.0380 mL/cmH2O and 0.0238 mL/cmH2O and 0.0370 mL/cmH2O
Ers (Balb/c mice; [5]): 33.3720 cmH2O/mL and 84.9688 cmH2O/mL and 26.3200 cmH2O/mL and 42.4174 cmH2O/mL and 28.6047 cmH2O/mL
Rrs (Balb/c mice; [5]): 4.1067 cmH2O · s/mL and 9.4002 cmH2O · s/mL and 2.2229 cmH2O · s/mL and 4.0926 cmH2O · s/mL and 2.1844 cmH2O · s/mL
Baseline airway resistance, elastance and compliance after PBS inhalation (Balb/c mice; saline-challenged mice, P140 i.v. 4 mg/kg day 25, vs solvent-treated mice): no effect on any parameter
Chronicity of the disease (Lewis rats): seems abolish the chronicity of the disease
Maximal clinical scores (Lewis rats): decreased the maximal clinical scores
Onset of the disease (Lewis rats): delayed the onset of the disease
Weight loss during the disease course (Lewis rats): less important
Weight loss (C57BL/6 mice; curative protocol (P140 day 1 and day 4), from day 2): 15%
Weight gain (C57BL/6 mice; curative protocol, between day 5 and the end of the study, controls 5%): 20%
Inflammation score per leg, maximum (C57BL/6 mice; curative protocol, rear legs): ~1.5
Weight loss (C57BL/6 mice; preventive protocol (P140 day −7 and day −2), day 1 to day 7, controls 10%): 5%
Increase in size of joints, right back legs (C57BL/6 mice; preventive protocol, day 0 to day 7, controls about 22%): around 12%
Increase in size of the joint, left hind paws (C57BL/6 mice; preventive protocol, day 0 to day 7, controls about 30%): about 15%
Increase in size of articulation, left front leg (C57BL/6 mice; preventive protocol, controls 45%): 20%
Swelling in the joints of right front leg (C57BL/6 mice; preventive protocol, controls nearly 45%): +20%
General inflammation score, maximum (C57BL/6 mice; preventive protocol, sum of four legs, controls around 7 (printed day 7)): ≤ 5
